Measurements from patent publication US20230104503A1, “SMALL MOLECULE COMPOUNDS” (THE REGENTS OF THE UNIVERSITY OF CALIFORNIA, priority 2021, published 2023).

Legend:
[1] = Stability during semi-preparative HPLC; format: physicochemical; settings: 65% acetonitrile with 35% water, 50° C.
Procedure: The crude was then dissolved in acetonitrile, and the resulting solution was subjected to semi-preparation using an Agilent Zorbax column (SB-C18, 5 μm, 9.4×250 mm, Agilent Technologies Inc., CA) heated to 50° C. by isocratic elution of 65% acetonitrile with 35% water at a flow rate of 3.5 mL/min. The absorbance at 278 nm wavelength was monitored.

[2] = humans; cited from earlier work
naïve CD4+ mouse T cells = test: FACS of stimulated naïve CD4+ mouse T-cells for CD4+CD25+FOXP3+; settings: 1 uM
mTOR = test: Phospho-flow (FACS) of phospho-p70S6K / p-S6 in activated mouse T-cells; format: cell-based
Procedure: Whole splenocyte from OT1 B6 mice was extracted. […] Cells were activated with compounds for 30 mins, 1 hour, 2 hours, and overnight. For each time point, p-S6, a downstream of mTORC1 pathway, was gated on low and high based on the DMSO and no stimulation control.

[3] = system: CD8 cells isolated from p14 transgenic mice; test: CD8 CTV-labelled proliferation assay; format: cell-based, mouse; settings: activated for 72 hours; relative to RAP35 and rapamycin
Procedure: The five analogs and rapamycin were assayed for their effect on proliferation and correlation to p70S6K inhibitory activity. […] The proliferation was measured by FACS. The five analogs were tested at varying concentrations (10 nM, 100 nM, and 100 μM), activated for 72 hours with rapamycin and DMSO treated controls.
CD8 cells were isolated from p14 transgenic mice, then labelled with CTV. The labelled cells then were activated with plate-bound anti-CD3 (5 μg/mL) and soluble anti-CD28 (2 μg/mL), along with rapamycin, rapamycin analog, or DMSO. After activation of 48 hours and 72 hours, the cells were collected to assay the CVT labelling signal using flow cytometry. All rapamycin analogs decrease proliferation in CD8 cells, with varying potency (FIG. 12).

naïve CD4+ mouse T-cells = test: FACS for expansion of CD62L+ memory T-cells; format: cell-based
Procedure: RAP23 was further evaluated by treating naïve CD4+ T-cells at multiple concentrations (1 nM to 1 uM) for expansion of CD62L+ memory T-cells. […] These 5 compounds were identified to have reduced immunosuppression (with improved safety) with maximum and durable expansion of memory T-cells.

conventional T cells = test: Treg assays for RAP35: culture of conventional T cells; format: cell-based
Treg cells = test: Treg assays for RAP35: Treg cells with expander beads; format: cell-based; settings: 100 nM

CO[C@H]1C[C@@H]2CC[C@@H](C)[C@@](O)(O2)C(=O)C(=O)N2CCCC[C@H]2C(=O)O[C@H](CC[C@@H]2CC[C@@H](O)[C@H](OC)C2)CC(=O)[C@H](C)/C=C(\C)[C@@H](O)CC(=O)[C@H](C)C[C@H](C)/C=C/C=C/C=C/1C [RAP35/27A, (3R,6R,7E,9S,12R,14S,15E,17E,19E,21S,23S,26R,27R,34aS)-9,27-dihydroxy-3-(2-((1S,3R,4R)-4-hydroxy-3-methoxycyclohexyl)ethyl)-21-methoxy-6,8,12,14,20,26-hexamethyl-9,10,12,13,14,21,22,23,24,25,26,27,32,33,34,34a-hexadecahydro-3H-23,27-epoxypyrido[2,1-c][1]oxa[4]azacyclohentriacontine-1,5,11,28,29(4H,6H,31H)-pentaone]
stability in the process of semi-preparation [1]: tended to be unstable

CO[C@H]1C[C@@H]2CC[C@@H](C)[C@@](O)(O2)C(=O)C(=O)N2CCCC[C@H]2C(=O)O[C@H]([C@H](C)C[C@@H]2CC[C@@H](O)[C@H](OC)C2)CC(=O)[C@H](C)/C=C(\C)[C@@H](O)[C@@H](OC)C(=O)[C@H](C)C[C@H](C)/C=C/C=C/C=C/1C [rapamycin, reference compound]
terminal half-life [2]: 24 to 48 h
FOXP3+ count (naïve CD4+ mouse T cells): 53.3

CO[C@H]1C[C@@H]2CC[C@@H](C)[C@@](O)(O2)C(=O)C(=O)N2CCCC[C@H]2C(=O)O[C@H]([C@H](C)C[C@@H]2CC[C@@H](O)[C@H](OC)C2)CC(=O)[C@H](C)/C=C(\C)[C@@H](O)[C@@H](OC)C(=O)[C@H](C)CC/C=C/C=C/C=C/1C [RAP23, (3S,6R,7E,9R,10R,12R,15E,17E,19E,21S,23S,26R,27R,34aS)-9,27-dihydroxy-3-((R)-1-((1S,3R,4R)-4-hydroxy-3-methoxycyclohexyl)propan-2-yl)-10,21-dimethoxy-6,8,12,20,26-pentamethyl-9,10,12,13,14,21,22,23,24,25,26,27,32,33,34,34a-hexadecahydro-3H-23,27-epoxypyrido[2,1-c][1]oxa[4]azacyclohentriacontine-1,5,11,28,29(4H,6H,31H)-pentaone]
inhibition of the p70S6 high signal (mTOR; even at 1 uM): never fully inhibited
proliferation of CTV-labelled CD8 cells [3]: increased proliferation
portion of cells possessing a phospho-p70S6K high/CD62L+high phenotype (naïve CD4+ mouse T-cells; 1 nM to 1 uM): 7-10%
generation of memory versus inhibition of proliferation (naïve CD4+ mouse T-cells; overall assessment): promote potent generation of memory without potently inhibiting proliferation
phospho-p70S6K low/CD62L+high phenotype (naïve CD4+ mouse T-cells; relative to all doses of rapamycin (including 1 nM)): reduced

CO[C@H]1C[C@@H]2CC[C@@H](C)[C@@](O)(O2)C(=O)C(=O)N2CCCC[C@H]2C(=O)O[C@H](CC[C@@H]2CC[C@@H](O)[C@H](OC)C2)CC(=O)[C@H](C)/C=C(\C)[C@@H](O)[C@@H](OC)C(=O)[C@H](C)C[C@H](C)/C=C/C=C/C=C/1C [RAP35, (3R,6R,7E,9R,10R,12R,14S,15E,17E,19E,21S,23S,26R,27R,34aS)-9,27-dihydroxy-3-(2-((1S,3R,4R)-4-hydroxy-3-methoxycyclohexyl)ethyl)-10,21-dimethoxy-6,8,12,14,20,26-hexamethyl-9,10,12,13,14,21,22,23,24,25,26,27,32,33,34,34a-hexadecahydro-3H-23,27-epoxypyrido[2,1-c][1]oxa[4]azacyclohentriacontine-1,5,11,28,29(4H,6H,31H)-pentaone]
p70S6 high cells (mTOR; following overnight stimulation, therapeutic concentrations (1-200 nM)): significantly reduced
anti-inflammatory effects (Cell Proliferation Dye and phenotypic markers) (conventional T cells; 100 nM): promising anti-inflammatory effects
CCR7 expression (conventional T cells; 100 nM, conventional T cells): increased
CD45RO expression (conventional T cells; 100 nM, conventional T cells): decreased
mitochondrial membrane potential (MitoProbe) (conventional T cells; compared to stimulated CD3 T cells): reduced
frequency of Treg cells (Treg cells): reduce
expression of CCR7 (Treg cells; Treg cells): reduce
expression of CD45RO (Treg cells; Treg cells): reduce
expression of CXCR3 (Treg cells; Treg cells): reduce
phosphorylation of 4EBP1 (Treg cells; Treg cells): reduce
phosphorylation of S6 (Treg cells; Treg cells): reduce
FOXP3+ count (naïve CD4+ mouse T cells): 45.8
